Measured values as given in patent US7968572B2, “Nitrogen-containing heterocyclic compound and pharmaceutical application thereof” (Ono Pharmaceuticals Co., Ltd., priority 2005, dated 2011).

Experiments:
[1] = molecular target: T1, recombinant human p38α MAP kinase (Homo sapiens, UniProt Q16539); experiment: Study on p38α MAP kinase inhibitory activity (ATF2 phosphorylation, Alpha Screen); assay type: biochemical; conditions: biotinylated ATF2 substrate, 30° C. for 30 minutes
T1 construct: purchased Upstate Biotechnology #14-251
Protocol: Study on p38α MAP Kinase Inhibitory Activity
Using activating transcription factor-2 (hereinafter abbreviated to ATF2) which is a substrate for p38α MAP kinase, the inhibitory action of the compounds of the present invention was investigated on the phosphorylation by a recombinant human p38α MAP kinase.
A kinase buffer (25 mM Tris-HCl (pH 7.5), 5 mM β-glycerophosphate, 2 mM dithiothreitol, 0.1 mM Na3VO4, 10 mM MgCl2) containing a recombinant human p38α MAP kinase (Upstate Biotechnology #14-251) was added to a 384-well plate (5 μL) (6.25 ng protein/well) for fluorescence measurement. After addition of a kinase buffer (5 μL) containing the compound of the present invention, the resulting mixture was incubated at room temperature for 20 minutes. A substrate mixture (5 μL) of biotinylated ATF2 of 5 μg/mL (Upstate Biotechnology #14-432), adenosine triphosphate (90 μmol/L) (Sigma #FL-AAS) and anti-phosphorylated ATF2 antibody (20-fold dilution) (Cell Signaling Technology #9221L) prepared separately was added thereto, and enzyme reaction was carried out at 30° C. for 30 minutes. After the reaction, Hepes buffer (5 μL) containing 0.25% BSA and 100 mM EDTA was added to stop the enzyme reaction. The amount of a complex of the phosphorylated ATF2 and anti-phosphorylated ATF2 antibody produced by the reaction was measured using an Alpha Screen™ Rabbit Detection kit (Packard #6760607).
The p38α MAP kinase inhibitory activity, which is the effect of the compound of the present invention, was calculated as an inhibition rate (%) according to the following equation: Inhibition rate (%)={(AC−AX)/(AC−AB)}×100
wherein AB is a measured value without addition of the enzyme;
AC is a measured value with addition of the enzyme in the absence of a test compound; and
AX is a measured value with addition of the enzyme in the presence of a test compound.
Inhibition rate of compounds with each concentration was calculated, and a value indicating 50% inhibition (IC50) was determined from the inhibition curve.

[2] = system: Chinese hamster lung cells (CHL/IU); experiment: Phospholipidosis detection system using a fluorescence labeling phospholipid analog (NBD-PE); assay type: cell-based; conditions: for Pospholipid accumulation increasing ratio (% of 30 uM amiodarone) (Dose of compound: 100 uM): about 24 hours with NBD-PE; for Judgment: phospholipidosis inducing activity, NBD-PE
Protocol: Study by a Phospholipidosis Detection System using a Fluorescence Labeling Phospholipid Analog Cell suspension (7×10^4 cells/ml) of Chinese hamster lung cells (CHL/IU) prepared using MEM (minimum essential medium) was added to a 96 well plate (96 well clear bottom plate) by 100 μL/necessary number of wells (2 wells for 1 dosage) and cultured for about 24 hours. After the culturing and subsequent removal of the supernatants on the 96 well plate, the compounds having respective concentrations prepared by dissolving or suspending in MEM medium containing 25 μmol/L of nitrobenzoxazole dipalmitoyl phosphatidyl ethanolamine (NBD-PE) (hereinafter abbreviated to NBD-PE medium) were added thereto by 100 μL/ well and treated for about 24 hours. Treating concentration of each compound was set to be 6.25, 12.5, 25, 50 or 100 μmol/L. […] In this connection, 5 wells of an untreated control (MEM medium alone) or an NBD-PE control (prepared by adding 1/100 volume of DMSO to the NBD-PE medium) were arranged for each compound and cultured in the same manner. After completion of the culturing and subsequent two times of washing with 100 μL/well of phosphate buffered saline (hereinafter abbreviated to PBS) (−), 100 μL of the MEM medium was added to all of the treated wells including two empty wells for the WST-1 background control and cultured for about 0.5 hour. Fluorescence intensity of each well was measured using a microplate reader (manufactured by Molecular Devices, SPECTRA max M2; excitation wavelength 485 nm/fluorescence wavelength 535 nm). Using average value of 2 wells for each dosage, the phospholipid increasing ratio (%) based on NBD-PE control was calculated using the following formula. Phospholipid accumulation increasing ratio (%)=100×(fluorescence intensity of substance to be tested−fluorescence intensity of untreated control)/(fluorescence intensity of NBD-PE control−fluorescence intensity of untreated control) (iii) Cytotoxicity Test The Pre value was calculated by measuring the 96 well plate which was measured in the measurement of phospholipid accumulation, using the microplate reader (manufactured by Molecular Devices, SPECTRA max M2) at a dominant wavelength of 450 nm and a correction wavelength of 690 nm. Premix WST-1 was added to the pre-measured 96 well plate by 5 μL/well. After 2 to 4 hours of culture, the Aft value was calculated by measuring in the same manner as in the Pre measurement. The background control value was subtracted from each of the measured values. Using the value obtained by subtracting the Pre value from the Aft value, the cell growth ratio (%) was calculated using the following formula.

T1 sequence (Q16539 whole entry): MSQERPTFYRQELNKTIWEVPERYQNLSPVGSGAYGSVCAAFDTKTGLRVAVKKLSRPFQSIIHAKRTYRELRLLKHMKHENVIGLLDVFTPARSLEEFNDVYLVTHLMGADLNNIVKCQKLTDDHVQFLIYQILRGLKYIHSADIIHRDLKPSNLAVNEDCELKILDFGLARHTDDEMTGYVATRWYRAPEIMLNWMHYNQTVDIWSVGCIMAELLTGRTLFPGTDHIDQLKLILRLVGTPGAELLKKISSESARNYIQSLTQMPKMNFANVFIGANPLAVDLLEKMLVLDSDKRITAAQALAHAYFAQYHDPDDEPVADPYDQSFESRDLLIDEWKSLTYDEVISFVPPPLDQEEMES

IC50 [1] | Compound | Pospholipid accumulation increasing ratio (% of 30 uM amiodarone) (Dose of compound: 100 uM) [2] | Judgment [2]
3.5 nM | CC(C)(O)c1nc(-c2ccc(=O)n(-c3c(F)cccc3F)c2)c(-c2ccc(F)cc2F)o1 [Example 7 (21), 1-(2,6-difluorophenyl)-5-[5-(2,4-difluorophenyl)-2-(1-hydroxy-1-methylethyl)-1,3-oxazol-4-yl]-2(1H)-pyridinone] | 8 % of 30 uM amiodarone | Negative
2.8 nM | O=c1ccc(-c2nc(C(O)(CO)CO)oc2-c2ccc(F)cc2F)cn1-c1c(F)cccc1F [Example 7 (39), 1-(2,6-difluorophenyl)-5-{5-(2,4-difluorophenyl)-2-[1,2-dihydroxy-1-(hydroxymethyl)ethyl]-1,3-oxazol-4-yl}-2(1H)-pyridinone] | 11 % of 30 uM amiodarone | Negative
4.4 nM | C[C@@](O)(CO)c1nc(-c2ccc(=O)n(-c3c(F)cccc3F)c2)c(-c2ccc(F)cc2F)o1 [Example 167 (1), 1-(2,6-difluorophenyl)-5-{5-(2,4-difluorophenyl)-2-[(1R)-1,2-dihydroxy-1-methylethyl]-1,3-oxazol-4-yl}-2(1H)-pyridinone] | 3 % of 30 uM amiodarone | Negative
3.8 nM | C[C@](O)(CO)c1nc(-c2ccc(=O)n(-c3c(F)cccc3F)c2)c(-c2ccc(F)cc2F)o1 [Example 167 (2), 1-(2,6-difluorophenyl)-5-{5-(2,4-difluorophenyl)-2-[(1S)-1,2-dihydroxy-1-methylethyl]-1,3-oxazol-4-yl}-2(1H)-pyridinone] | 18 % of 30 uM amiodarone | Negative
3.3 nM | CC(C)(O)[C@H](O)c1nc(-c2ccc(F)cc2F)c(-c2ccc(=O)n(-c3c(F)cccc3F)c2)o1 [Example 206, 1-(2,6-difluorophenyl)-5-{4-(2,4-difluorophenyl)-2-[(1S)-1,2-dihydroxy-2-methylpropyl]-1,3-oxazol-5-yl}-2(1H)-pyridinone] | 10 % of 30 uM amiodarone | Negative
3.7 nM | CC(C)(O)[C@@H](O)c1nc(-c2ccc(F)cc2F)c(-c2ccc(=O)n(-c3c(F)cccc3F)c2)o1 [Example 207, 1-(2,6-difluorophenyl)-5-{4-(2,4-difluorophenyl)-2-[(1R)-1,2-dihydroxy-2-methylpropyl]-1,3-oxazol-5-yl}-2(1H)-pyridinone] | 11 % of 30 uM amiodarone | Negative
5.6 nM | C[C@@](O)(CO)c1nc(-c2ccc(F)cc2F)c(-c2ccc(=O)n(-c3c(F)cccc3F)c2)o1 [Example 211, 1-(2,6-difluorophenyl)-5-{4-(2,4-difluorophenyl)-2-[(1R)-1,2-dihydroxy-1-methylethyl]-1,3-oxazol-5-yl}-2(1H)-pyridinone] | 8 % of 30 uM amiodarone | Negative
8 nM | CC(C)(O)Cc1nc(-c2ccc(F)cc2F)c(-c2ccc(=O)n(-c3c(F)cccc3F)c2)o1 [Example 220, 1-(2,6-difluorophenyl)-5-[4-(2,4-difluorophenyl)-2-(2-hydroxy-2-methylpropyl)-1,3-oxazol-5-yl]-2(1H)-pyridinone] | 11 % of 30 uM amiodarone | Negative
3.3 nM | O=c1ccc(-c2oc(C(O)(CO)CO)nc2-c2ccc(F)cc2F)cn1-c1c(F)cccc1F [Example 223, 1-(2,6-difluorophenyl)-5-{4-(2,4-difluorophenyl)-2-[1,2-dihydroxy-1-(hydroxymethyl)ethyl]-1,3-oxazol-5-yl}-2(1H)-pyridinone] | 12 % of 30 uM amiodarone | Negative
4.8 nM | CC(C)(O)[C@@H](O)c1nc(-c2ccc(=O)n(-c3c(F)cccc3F)c2)c(-c2ccc(F)cc2F)o1 [Example 227 (1), 1-(2,6-difluorophenyl)-5-{5-(2,4-difluorophenyl)-2-[(1R)-1,2-dihydroxy-2-methylpropyl]-1,3-oxazol-4-yl}-2(1H)-pyridinone] | 13 % of 30 uM amiodarone | Negative
3.9 nM | CC(C)(O)[C@H](O)c1nc(-c2ccc(=O)n(-c3c(F)cccc3F)c2)c(-c2ccc(F)cc2F)o1 [Example 227, 1-(2,6-difluorophenyl)-5-{5-(2,4-difluorophenyl)-2-[(1S)-1,2-dihydroxy-2-methylpropyl]-1,3-oxazol-4-yl}-2(1H)-pyridinone] | 12 % of 30 uM amiodarone | Negative
